This passage reports GI50 and TGI results from PubChem BioAssay (NCI).

“And” between values parts separate entries of the source, which are not always exact repeats. Equal values may be shown once.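 Dose response: 5 concentrations. Exposure: 48 h. Format: 96-well plates. Endpoint: linear interpolation; highest concentration if not reached. GI50 is the concentration that inhibits growth by half. TGI denotes the concentration required for complete inhibition of growth.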 Bounds are passed on as bounds.

Holding throughout (assay): inhibition of tumour cell growth, NCI panel, 48 h
The test system of assay [1] is LOX IMVI melanoma.
Assay [2] concerns CCRF-CEM leukemia.
In assay [3] the test system is SF-295 CNS.
Assay [4] has as its system SW-620 colon.
The test system of assay [5] is ACHN renal.
The subject of assay [6] is RPMI-8226 leukemia.
The test system of assay [7] is OVCAR-8 ovarian.
In assay [8] the test system is UACC-257 melanoma.

As for `CC1/C(=N/Nc2ccc([N+](=O)[O-])cc2)CC2C3(C)CCC2(C(C)C(=O)O)C(=O)C13` (stereo unspecified), the GI50 in assay [1] is 75.3 µM; in assay [2], 16.3 µM; in assay [3], 4.74 µM; in assay [4], 49.4 µM; in assay [5], 6.33 µM; in assay [6], 2.95 µM. The figures for the GI50 in assay [7] and in assay [8] were 8.17 µM and greater than 100 µM, respectively. Moreover, the TGI in assay [1] is greater than 100 µM; in assay [2], greater than 100 µM; in assay [3], greater than 100 µM; in assay [4] it was greater than 100 µM; in assay [5], greater than 100 µM; in assay [6], 24 µM. Besides, the TGI in assay [7] and in assay [8] was greater than 100 µM each time.

For the compound `Cc1ccc(S(=O)(=O)Nc2nc3ccccc3nc2Nc2ccc3nsnc3c2)cc1`, the GI50 in assay [1] was 3.67 µM and 3.89 µM; in assay [2], 3.32 µM and 2.93 µM; in assay [3], 2.98 µM and 2.36 µM; in assay [4], 7.95 µM and 5.22 µM; in assay [5] it was 4.01 µM and 3.75 µM; in assay [6] it was 0.85 µM and 2.64 µM. The GI50 was 4.3 µM and 4.19 µM in assay [7]; 3.56 µM and 2.87 µM in assay [8]. The TGI in assay [1] was 36.1 µM and > 100 µM; in assay [2], greater than 100 µM; in assay [3] it was 15.7 µM and 13.3 µM; in assay [4], greater than 100 µM; in assay [5], greater than 100 µM; in assay [6], 21.2 µM and > 100 µM. Moreover, the TGI was greater than 100 µM in assay [7]; 27.7 µM and > 100 µM in assay [8].

As to `Clc1ccc2c(c1)-c1ccccc1C1=NCCN12`, the GI50 in assay [1] is 1.59 µM; in assay [2], 1.7 µM; in assay [3] it was 2.12 µM; in assay [4] it was 1.11 µM; in assay [5] it was 1.12 µM; in assay [6], 1.91 µM. The GI50 is 1.22 µM in assay [7] and 1.54 µM in assay [8]. Moreover, the TGI came out at 3.65 µM in assay [1]; 4.08 µM in assay [2]; 6.34 µM in assay [3]; 6.53 µM in assay [4]; 9.3 µM in assay [5]; 4.36 µM in assay [6]. Further, the figures for the TGI in assay [7] and in assay [8] were 5.4 µM and 3.3 µM, respectively.

As to `COc1cc(-c2oc3c(OC)c(O)c(OC)c(O)c3c(=O)c2OC)ccc1O`, the TGI in assay [1], in assay [2], in assay [3], in assay [4], in assay [5] and in assay [6] was greater than 100 µM each time. Besides, the TGI in assay [7] and in assay [8] was greater than 100 µM throughout.

Turning to `O=C(CCCCCCC(=O)Nc1ccc2c(c1)/C(=C/c1ccc[nH]1)C(=O)N2)NO`, the GI50 in assay [1] is 0.548 µM; in assay [2], 0.0923 µM; in assay [3], 1.3 µM; in assay [4], 0.271 µM; in assay [5], 0.904 µM; in assay [6] it was 2.9 µM. Besides, the figures for the GI50 in assay [7] and in assay [8] were 0.472 µM and 0.353 µM, respectively. For the same compound, the TGI is 2.08 µM in assay [1]; greater than 100 µM in assay [2]; 7.51 µM in assay [3]; greater than 21.9 µM in assay [4]; 4.67 µM in assay [5]; greater than 100 µM in assay [6]. Besides, the TGI was greater than 89.4 µM in assay [7] and 5.44 µM in assay [8].

For the compound `OC(CNc1ccnc2cc(Cl)ccc12)CNC1CCCCC1` (stereo unspecified), the GI50 in assay [1] was 4.57 µM; in assay [2] it was 7.29 µM; in assay [3], 2.13 µM; in assay [4], 4.79 µM; in assay [5], 6.06 µM; in assay [6], 10.1 µM. Also, the GI50 in assay [7] was 5.07 µM; in assay [8] it was 1.78 µM. In addition, the TGI in assay [1] was 16.7 µM; in assay [2] it was 42.4 µM; in assay [3], 4.9 µM; in assay [4] it was 18.3 µM; in assay [5], 19.4 µM; in assay [6] it was 36.4 µM. Also, the figures for the TGI in assay [7] and in assay [8] were 19.9 µM and 3.33 µM, respectively.

As to `C=C1CC[C@@H]2[C@](C)(COC(C)=O)[C@H](OC(C)=O)CC[C@@]2(C)[C@@H]1C/C=C1/C(=O)OC[C@H]1OC(C)=O`, the GI50 in assay [1] was 1.42 µM; in assay [2] it was 1.12 µM; in assay [3] it was 13.3 µM; in assay [4] it was 2.29 µM; in assay [5] it was 1.71 µM; in assay [6] it was 2.06 µM. Further, the GI50 in assay [7] was 3.38 µM; in assay [8], 6.2 µM. The TGI in assay [1] worked out at 2.85 µM; in assay [2], 5.32 µM; in assay [3] it was 26.8 µM; in assay [4], 5.85 µM; in assay [5], 3.22 µM; in assay [6] it was 7.68 µM. Moreover, the TGI in assay [7] was determined as 22 µM; in assay [8] it was 19.9 µM.

Turning to `COc1cc(/C=C/C(=O)c2c(C)n([O-])c3ccc(Cl)cc3[n+]2=O)cc(OC)c1OC`, the GI50 in assay [1] was 90.2 µM; in assay [2], greater than 100 µM; in assay [3], 35 µM; in assay [4], greater than 100 µM; in assay [5], greater than 100 µM; in assay [6], greater than 100 µM. Besides, the GI50 in assay [7] is 11.8 µM; in assay [8], 49.6 µM. The TGI in assay [1], in assay [2], in assay [3], in assay [4], in assay [5] and in assay [6] was greater than 100 µM throughout. The TGI is 33.4 µM in assay [7] and greater than 100 µM in assay [8].

For the compound `O=Cc1ccc(O)c2ncccc12`, the GI50 in assay [1] was 2.31 µM; in assay [2], 0.952 µM; in assay [3] it was 2.12 µM; in assay [4], 3.91 µM; in assay [5], 12.9 µM; in assay [6] it was 2.2 µM. In addition, the GI50 is 3.28 µM in assay [7] and 3.45 µM in assay [8]. Besides, the TGI was greater than 54.5 µM in assay [1]; greater than 32 µM in assay [2]; 13.1 µM in assay [3]; 16.6 µM in assay [4]; greater than 100 µM in assay [5]; 15.8 µM in assay [6]. In addition, the TGI in assay [7] was greater than 100 µM; in assay [8], greater than 53.1 µM.
